In US9233964B2, “Sulfamide piperazine derivatives as protein tyrosine kinase inhibitors and pharmaceutical use therof” (LEO PHARMA A/S, priority 2011, dated 2016):

Columns and labels:
Format in all cases: biochemical
JAK2 = biological target: T1, JAK2 (Homo sapiens, UniProt O60674); assay: JAK kinase assay (HTRF, phosphorylation of synthetic peptide), JAK2; conditions: catalytic domain, ATP at Km (4 μM); read-out: JAK2 kinase inhibitory activity (EC50)
T1 construct: All four purified enzymes contain only the catalytic domain; His (N); purchased Carna Biosciences, Inc; host or cells: baculovirus expression system
T1 sequence (O60674 849-1124 limits assumed): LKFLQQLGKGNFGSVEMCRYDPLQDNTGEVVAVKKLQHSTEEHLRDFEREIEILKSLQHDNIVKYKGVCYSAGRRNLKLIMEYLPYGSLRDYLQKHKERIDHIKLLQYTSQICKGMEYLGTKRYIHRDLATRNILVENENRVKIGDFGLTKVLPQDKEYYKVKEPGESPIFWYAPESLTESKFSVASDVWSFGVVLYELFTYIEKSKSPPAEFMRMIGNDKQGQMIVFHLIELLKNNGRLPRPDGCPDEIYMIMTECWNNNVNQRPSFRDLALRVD
Summary of the method: (§1)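 Catalytic-domain human JAK1 (GST-tagged, aa 850-1154) or His-tagged JAK2, baculovirus-expressed, phosphorylated 1 µM biotinylated TK peptide at Km ATP (JAK1 7 µM, 10 mM MgCl2, 50 nM SEB; JAK2 4 µM, 5 mM MgCl2) in pH 7.0 Hepes, 20-30 min RT. EDTA stop; overnight streptavidin-XL665/cryptate HTRF read.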

JAK3 = biological target: T2, JAK3 (Homo sapiens, UniProt P52333); assay: JAK kinase assay (HTRF, phosphorylation of synthetic peptide), JAK3; conditions: catalytic domain, ATP at Km (2 μM); read-out: JAK3 kinase inhibitory activity (EC50)
T2 construct: All four purified enzymes contain only the catalytic domain; His (N); purchased Carna Biosciences, Inc; host or cells: baculovirus expression system
T2 sequence (P52333 822-1111 limits assumed): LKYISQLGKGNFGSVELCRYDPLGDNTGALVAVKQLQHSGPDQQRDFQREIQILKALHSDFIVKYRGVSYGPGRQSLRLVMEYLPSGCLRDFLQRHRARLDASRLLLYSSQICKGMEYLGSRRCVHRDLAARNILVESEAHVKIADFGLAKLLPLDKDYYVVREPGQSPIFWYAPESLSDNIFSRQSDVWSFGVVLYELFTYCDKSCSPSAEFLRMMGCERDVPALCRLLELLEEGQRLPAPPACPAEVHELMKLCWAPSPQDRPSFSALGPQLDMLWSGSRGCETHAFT

TYK2 = biological target: T3, TYK2 (Homo sapiens, UniProt P29597); assay: JAK kinase assay (HTRF, phosphorylation of synthetic peptide), TYK2; conditions: catalytic domain, ATP at Km (13 μM); read-out: TYK2 kinase inhibitory activity (EC50)
T3 construct: JAK1 (aa 850-1154) and TYK2 (aa 871-1187) are expressed with an N-terminally fused GST-tag; GST (N); purchased Carna Biosciences, Inc; host or cells: baculovirus expression system
T3 sequence (P29597 871-1187): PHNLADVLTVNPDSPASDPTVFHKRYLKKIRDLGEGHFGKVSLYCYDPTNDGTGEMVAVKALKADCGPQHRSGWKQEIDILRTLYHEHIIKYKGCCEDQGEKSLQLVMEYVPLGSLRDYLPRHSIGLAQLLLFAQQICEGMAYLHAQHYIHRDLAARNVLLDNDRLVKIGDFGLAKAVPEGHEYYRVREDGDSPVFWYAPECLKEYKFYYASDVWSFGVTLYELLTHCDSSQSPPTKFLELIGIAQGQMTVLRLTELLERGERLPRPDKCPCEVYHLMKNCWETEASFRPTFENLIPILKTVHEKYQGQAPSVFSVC
Summary of the method: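 1 µM biotinylated TK peptide at Km ATP in pH 7.0 Hepes, 20-30 min RT. EDTA stop; overnight streptavidin-XL665/cryptate HTRF read.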

JAK1 = biological target: T4, JAK1 (Homo sapiens, UniProt P23458); assay: JAK kinase assay (HTRF, phosphorylation of synthetic peptide), JAK1; conditions: catalytic domain, ATP at Km (7 μM); read-out: JAK1 kinase inhibitory activity (EC50)
T4 construct: JAK1 (aa 850-1154) and TYK2 (aa 871-1187) are expressed with an N-terminally fused GST-tag; GST (N); purchased Carna Biosciences, Inc; host or cells: baculovirus expression system
T4 sequence (P23458 850-1154): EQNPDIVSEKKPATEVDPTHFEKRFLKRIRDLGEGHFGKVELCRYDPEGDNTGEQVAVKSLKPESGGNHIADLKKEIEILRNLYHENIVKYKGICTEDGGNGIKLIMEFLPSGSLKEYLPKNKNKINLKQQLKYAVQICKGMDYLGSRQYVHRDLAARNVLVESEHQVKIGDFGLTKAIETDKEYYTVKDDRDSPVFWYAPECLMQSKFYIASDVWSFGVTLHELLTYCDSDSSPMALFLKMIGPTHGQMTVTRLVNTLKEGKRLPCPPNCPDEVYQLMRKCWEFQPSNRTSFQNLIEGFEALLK
Summary of the method: as §1

EC50 (JAK2) [nM]	EC50 (JAK3) [nM]	EC50 (TYK2) [nM]	EC50 (JAK1) [nM]	SMILES
< 100	< 100	< 100	< 100	CN(CC1CC1(F)F)S(=O)(=O)N1CCN(c2ncnc3[nH]ccc23)CC12CC2 (centres unmarked) [Example 86, N-[(2,2-difluorocyclopropyl)methyl]-N-methyl-5-(7H-pyrrolo[2,3-d]pyrimidin-4-yl)-5,8-diazaspiro[2.5]octane-8-sulfonamide]
< 100	100 to 500	> 500	< 100	CN(CCC1CCCCC1)S(=O)(=O)N1CCN(c2ncnc3[nH]ccc23)CC12CC2 [Example 11, 7-(7H-Pyrrolo[2,3-d]pyrimidin-4-yl)-4,7-diaza-spiro[2.5]octane-4-sulfonic acid (2-cyclohexyl-ethyl)-methyl-amide]
100 to 500	> 500	> 500	100 to 500	CN(C[C@H]1CCCN1)S(=O)(=O)N1CCN(c2ncnc3[nH]ccc23)CC12CC2 [Int 51]
< 100	< 100	< 100	< 100	CN(Cc1ccc(S(C)(=O)=O)cc1)S(=O)(=O)N1CCN(c2ncnc3[nH]ccc23)CC12CC2 [Example 83, N-methyl-N-[(4-methylsulfonylphenyl)methyl]-5-(7H-pyrrolo[2,3-d]pyrimidin-4-yl)-5,8-diazaspiro[2.5]octane-8-sulfonamide]
< 100	< 100	< 100	< 100	CN(C(=O)C1CCS(=O)(=O)CC1)S(=O)(=O)N1CCN(c2ncnc3[nH]ccc23)CC12CC2 [Example 139, N-methyl-1,1-dioxo-N-[[5-(7H-pyrrolo[2,3-d]pyrimidin-4-yl)-5,8-diazaspiro[2.5]octan-8-yl]sulfonyl]thiane-4-carboxamide]
< 100	< 100	100 to 500	< 100	C=C1CCC(CN(C)S(=O)(=O)N2CCN(c3ncnc4[nH]ccc34)CC23CC3)CC1 [Example 87, N-methyl-N-[(4-methylenecyclohexyl)methyl]-5-(7H-pyrrolo[2,3-d]pyrimidin-4-yl)-5,8-diazaspiro[2.5]octane-8-sulfonamide]
< 100	100 to 500	100 to 500	< 100	O=S(=O)(N(CCn1ccnc1)C1CCC1)N1CCN(c2ncnc3[nH]ccc23)CC12CC2 [Example 104, N-cyclobutyl-N-(2-imidazol-1-ylethyl)-5-(7H-pyrrolo[2,3-d]pyrimidin-4-yl)-5,8-diazaspiro[2.5]octane-8-sulfonamide]
< 100	< 100	100 to 500	< 100	CC(C)CCN(C)S(=O)(=O)N1CCN(c2ncnc3[nH]ccc23)CC12CC2 [Example 27, 7-(7H-Pyrrolo[2,3-d]pyrimidin-4-yl)-4,7-diaza-spiro[2.5]octane-4-sulfonic acid methyl-(3-methyl-butyl)-amide]
< 100	100 to 500	100 to 500	< 100	CN(C)C(=O)CN(C)S(=O)(=O)N1CCN(c2ncnc3[nH]ccc23)CC12CC2 [Example 36, N,N-Dimethyl-2-{methyl-[7-(7H-pyrrolo[2,3-d]pyrimidin-4-yl)-4,7-diaza-spiro[2.5]octane-4-sulfonyl]-amino}-acetamide]
< 100	< 100	100 to 500	< 100	CN(CCn1cccn1)S(=O)(=O)N1CCN(c2ncnc3[nH]ccc23)CC12CC2 [Example 66, N-methyl-N-(2-pyrazol-1-ylethyl)-5-(7H-pyrrolo[2,3-d]pyrimidin-4-yl)-5,8-diazaspiro[2.5]octane-8-sulfonamide]
< 100	100 to 500	> 500	< 100	CCC(=O)CN(CCc1ccccc1)S(=O)(=O)N1CCN(c2ncnc3[nH]ccc23)CC12CC2 [Example 4, 7-(7H-Pyrrolo[2,3-d]pyrimidin-4-yl)-4,7-diaza-spiro[2.5]octane-4-sulfonic acid (2-oxo-butyl)-phenethyl-amide]
< 100	100 to 500	100 to 500	< 100	CN(C[C@H]1CCCN1C(=O)CCO)S(=O)(=O)N1CCN(c2ncnc3[nH]ccc23)CC12CC2 [Example 190, N-[[(2R)-1-(3-hydroxypropanoyl)pyrrolidin-2-yl]methyl]-N-methyl-5-(7H-pyrrolo[2,3-d]pyrimidin-4-yl)-5,8-diazaspiro[2.5]octane-8-sulfonamide]
< 100	< 100	< 100	< 100	CN(C[C@@H]1CC(F)(F)CN1S(C)(=O)=O)S(=O)(=O)N1CCN(c2ncnc3[nH]ccc23)CC12CC2 [Example 162, N-[[(2S)-4,4-difluoro-1-methylsulfonyl-pyrrolidin-2-yl]methyl]-N-methyl-5-(7H-pyrrolo[2,3-d]pyrimidin-4-yl)-5,8-diazaspiro[2.5]octane-8-sulfonamide]
< 100	100 to 500	> 500	< 100	CN(C[C@@H]1CCCN1)S(=O)(=O)N1CCN(c2ncnc3[nH]ccc23)CC12CC2 [Int 52]
< 100	< 100	100 to 500	< 100	CN(C(=O)C1CCC(F)(F)CC1)S(=O)(=O)N1CCN(c2ncnc3[nH]ccc23)CC12CC2 [Example 130, 4,4-difluoro-N-methyl-N-[[5-(7H-pyrrolo[2,3-d]pyrimidin-4-yl)-5,8-diazaspiro[2.5]octan-8-yl]sulfonyl]cyclohexanecarboxamide]
< 100	< 100	100 to 500	< 100	CN(CC1CCCN(C(=O)CCO)C1)S(=O)(=O)N1CCN(c2ncnc3[nH]ccc23)CC12CC2 (centres unmarked) [Example 154, N-[[1-(3-hydroxypropanoyl)-3-piperidyl]methyl]-N-methyl-5-(7H-pyrrolo[2,3-d]pyrimidin-4-yl)-5,8-diazaspiro[2.5]octane-8-sulfonamide]
< 100	< 100	100 to 500	< 100	COCCS(=O)(=O)N1CCC(CN(C)S(=O)(=O)N2CCN(c3ncnc4[nH]ccc34)CC23CC3)C1 (centres unmarked) [Example 120, N-[[1-(2-methoxyethylsulfonyl)pyrrolidin-3-yl]methyl]-N-methyl-5-(7H-pyrrolo[2,3-d]pyrimidin-4-yl)-5,8-diazaspiro[2.5]octane-8-sulfonamide]
< 100	< 100	< 100	< 100	CN(C[C@@H]1CCC(=O)N1)S(=O)(=O)N1CCN(c2ncnc3[nH]ccc23)CC12CC2 [Example 183, N-methyl-N-[[(2S)-5-oxopyrrolidin-2-yl]methyl]-5-(7H-pyrrolo[2,3-d]pyrimidin-4-yl)-5,8-diazaspiro[2.5]octane-8-sulfonamide]
< 100	< 100	< 100	< 100	N#CCN(C1CCC1)S(=O)(=O)N1CCN(c2ncnc3[nH]ccc23)CC12CC2 [Example 100, N-(cyanomethyl)-N-cyclobutyl-5-(7H-pyrrolo[2,3-d]pyrimidin-4-yl)-5,8-diazaspiro[2.5]octane-8-sulfonamide]
< 100	< 100	100 to 500	< 100	CN(C[C@@H]1CCCN1S(C)(=O)=O)S(=O)(=O)N1CCN(c2ncnc3[nH]ccc23)CC12CC2 [Example 194, N-methyl-N-[[(2S)-1-methylsulfonylpyrrolidin-2-yl]methyl]-5-(7H-pyrrolo[2,3-d]pyrimidin-4-yl)-5,8-diazaspiro[2.5]octane-8-sulfonamide]
< 100	< 100	100 to 500	< 100	CN(Cc1cccc(C#N)c1)S(=O)(=O)N1CCN(c2ncnc3[nH]ccc23)CC12CC2 [Example 13, 7-(7H-Pyrrolo[2,3-d]pyrimidin-4-yl)-4,7-diaza-spiro[2.5]octane-4-sulfonic acid (3-cyano-benzyl)-methyl-amide]
< 100	< 100	100 to 500	< 100	COCCN(CCc1ccccc1)S(=O)(=O)N1CCN(c2ncnc3[nH]ccc23)CC12CC2 [Example 22, 7-(7H-Pyrrolo[2,3-d]pyrimidin-4-yl)-4,7-diaza-spiro[2.5]octane-4-sulfonic acid (2-methoxy-ethyl)-phenethyl-amide]
< 100	100 to 500	> 500	< 100	CN(CC1CCN(C(=O)C(O)CO)C1)S(=O)(=O)N1CCN(c2ncnc3[nH]ccc23)CC12CC2 (centres unmarked) [Example 127, N-[[1-(2,3-dihydroxypropanoyl)pyrrolidin-3-yl]methyl]-N-methyl-5-(7H-pyrrolo[2,3-d]pyrimidin-4-yl)-5,8-diazaspiro[2.5]octane-8-sulfonamide]
